The record followed here is US20230110378A1, “MONOBACTAM COMPOUND AND USE THEREOF” (EVOPOINT BIOSCIENCES CO., LTD., priority 2019, published 2023).

Converted amounts (≈) assume the structure as drawn. Read-outs that look alike come from different tables or passages of the source. Bounds are passed on as bounds.

Data set [1] relates to Klebsiella pneumoniae HDBKP 9249. Put plainly: Minimum inhibitory concentration (broth microdilution, CLSI). It is filed as cell-based. The note with it: HDBKP9249. Put shortly:
(§1)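 Bacteria from fresh TSA plates (MA for P. mirabilis) were suspended to OD600 ~0.15 and diluted in 1.02×CAMHB to 2×10^5 CFU/mL. Compounds were tested by 2-fold dilution from a top concentration of 16, 32 or 64 μg/mL. After 20-24 h at 35 ± 2 °C, MIC was read visually per CLSI.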
For orientation: Broth dilution looks for growth in wells or tubes with falling amounts of substance.

Data set [2] has as its system Enterobacter cloacae HDBECL 30030. The description is as above. It is filed as cell-based. The note with it: HDBECL30030. The method, boiled down: as §1
Data set [3] relates to Escherichia coli HDBEC 30048. Described as above. It is filed as cell-based. The following applies: HDBEC30048. The method, boiled down:
as §1

Data set [4] relates to Pseudomonas aeruginosa HDBPA 5679. Described as above. Format: cell-based. The following applies: HDBPA5679. Put shortly:
as §1

For data set [5], the system named is Escherichia coli HDBEC 30016. Described as above. It is filed as cell-based. The following applies: HDBEC30016. The method, boiled down:
as §1

Data set [6] concerns Klebsiella pneumoniae HDBKP 30006. The data set is described as above. Format: cell-based. The following applies: HDBKP30006. The method, boiled down: as §1
Data set [7] concerns Klebsiella pneumoniae HDBKP 9153. Described as above. It is filed as cell-based. The note with it: HDBKP9153. The method, boiled down:
as §1

Data set [8] has as its system Proteus mirabilis HDBPM 40. The data set is described as above. It is filed as cell-based. The following applies: HDBPM40. Put shortly: as §1
For data set [9], the system named is metallo-β-lactamase-expressing Acinetobacter baumannii strain ABA-0003YK. The data set is described as above. The following applies: read-out: MIC A. baumannii ABA-0003YK. It is filed as cell-based. Put shortly:
as §1

Data set [10] relates to Escherichia coli HDBEC 30008. The description is as above. It is filed as cell-based. The following applies: HDBEC30008. Put shortly: as §1
Data set [11] can be described thus: Pharmacokinetic evaluation of compounds in mice (tail vein injection). Format: in vivo, Male CD-1 (ICR) mice. The note with it: CD-1 (ICR), mouse, male CD-1 mice, intravenous injection, plasma; for half-life: read-out: T½ (converted); for Vd: read-out: Vss. Here is the method: Male CD-1 (ICR) mice were purchased and then acclimatized in this laboratory for at least 3 days. […] Blood samples were collected from the saphenous vein at 0.0833 h, 0.25 h, 0.5 h, 1 h, 2 h, 4 h, 8 h and 24 h following the tail vein injection administration. The volume of blood collection at each time point of the blood collection was about 30 μL. The blood samples were placed in centrifuge tubes containing anticoagulant EDTA-K2 and centrifuged at 3,200 g at 4° C. for 10 min, and then the upper plasma samples were collected and preserved in a freezer at −70±10° C. for later tests.
1) To 1.5 mL centrifuge tubes were added a 6 μL aliquot of an unknown sample, a standard curve, a quality control, a dilution quality control, single blank and double blank samples.
2) Each sample (except for the double blank sample) was treated with 120 μL of IS1-containing precipitant (the double blank sample was treated with 120 μL of pure MeOH for precipitation), and the mixtures were well mixed (for at least 15 s) using a vortexer and centrifuged at 12,000 g at 4° C. for 15 min.
3) 60 μL of the supernatants were transferred to a 96-well plate and centrifuged at 4° C. at 3220 g for 5 min, and 6 p L of the supernatants were injected for LC-MS/MS quantitative analysis.
1) The 1 h-plasma samples from the 3 mice were diluted 10-fold: 2 p L of the samples were added to 18 p L of blank matrix.
2) The 0.0833 h to 0.5 h-plasma samples from the 3 mice were diluted 100-fold: 18 μL of blank matrix was added to 2 p L of the samples to obtain 10-fold diluted samples. 2 μL of the 10-fold diluted samples were added to 18 p L of blank matrix to obtain 100-fold diluted analysis samples.
LC-MS/MS analysis conditions: chromatography column: ACQUITY UPLC HSS T3 (2.1×50 mm, 1.8 μm); column temperature: 50° C.; mobile phase A: a 0.1% aqueous solution of formic acid; mobile phase B: a 0.1% solution of formic acid in acetonitrile; flowrate: 0.65 mL/min. Internal standard: verapamil (100 ng/mL)
The concentration of the compounds in plasma was measured by LC-MS/MS (LC-MS/MS-AK_Q-Trap 6500). The pharmacokinetic software WinNonlin [version: Phoenix™ WinNonlin®6.3, manufacturer: Pharsight Corporation] was used to calculate pharmacokinetic parameters (V-Noncompartmental model 201).

Take `C[C@H]1[C@H](NC(=O)/C(=N\OC(C)(C)C(=O)O)c2csc(N)n2)C(=O)N1S(=O)(=O)O` [Aztreonam, reference compound]: the MIC in [1], in data set [2], in [3], in [4], in [5] and in data set [6] was > 16 µg/mL throughout. The MIC in data set [7] is > 16 µg/mL; in data set [8], 8 to 16 µg/mL (≈ 18.4 to 36.7 µM); in data set [9] it was > 16 µg/mL; in data set [10], 8 to 16 µg/mL (≈ 18.4 to 36.7 µM).

Regarding `CC(C)(O/N=C(\C(=O)N[C@@H]1C(=O)N(S(=O)(=O)O)[C@@H]1CNC(=O)c1cc([C@@H]2CCN(C(=O)c3cc(=O)c(O)cn3O)C2)no1)c1csc(N)n1)C(=O)O` [Compound I-7], the exposure (AUC) in data set [11] (dose 5 mg/kg) came out at 4240 ng·h/mL. In data set [11] (dose 5 mg/kg), this molecule had a clearance of 19.6 mL/min/kg. The half-life in data set [11] (dose 5 mg/kg) was 16.2 min. Besides, in [11] (dose 5 mg/kg), the Vd was found to be 0.48 L/kg. Besides, the MIC in data set [1] is > 16 µg/mL; in [2], < 4 µg/mL; in data set [3], < 4 µg/mL; in [4], < 4 µg/mL; in [5], 4 to 8 µg/mL (≈ 5.21 to 10.4 µM); in data set [6] it was > 16 µg/mL. Further, the MIC in data set [7], in [8], in data set [9] and in [10] was < 4 µg/mL each time.

Regarding `CC(C)(O/N=C(\C(=O)N[C@@H]1C(=O)N(S(=O)(=O)O)[C@@H]1CNC(=O)c1cc([C@@H]2CCN(C(=O)c3ccc(O)c(O)c3Cl)C2)no1)c1csc(N)n1)C(=O)O` [Compound I-27], the minimal inhibitory concentration (MIC) in data set [1] was 4 to 8 µg/mL (≈ 5.09 to 10.2 µM); in data set [2] it was < 4 µg/mL; in data set [3] it was < 4 µg/mL; in data set [4] it was < 4 µg/mL; in data set [5] it was < 4 µg/mL; in data set [6], 4 to 8 µg/mL (≈ 5.09 to 10.2 µM). The MIC in [7], in data set [8], in data set [9] and in [10] was < 4 µg/mL each time.

For the molecule `C[n+]1cc(-c2ncc(C(=O)NC[C@@H]3[C@H](NC(=O)/C(=N\OC4(C(=O)O)CC4)c4csc(N)n4)C(=O)N3S(=O)(=O)O)s2)cn1CCCNC(=O)c1ccc(O)c(O)c1Cl` [Compound I-28], the MIC in data set [1] was < 4 µg/mL; in data set [2], < 4 µg/mL; in data set [3], < 4 µg/mL; in [4], < 4 µg/mL; in data set [5] it was < 4 µg/mL; in data set [6], 4 to 8 µg/mL. Moreover, the MIC in data set [7], in [8], in data set [9] and in data set [10] was < 4 µg/mL throughout.

Take `CC(C)(O/N=C(\C(=O)N[C@@H]1C(=O)N(S(=O)(=O)O)[C@@H]1CNC(=O)c1cnc([C@@H]2CCN(C(=O)c3ccc(O)c(O)c3Cl)C2)s1)c1csc(N)n1)C(=O)O` [Compound I-30]: the minimum inhibitory concentration (MIC) in data set [1] is 4 to 8 µg/mL (≈ 4.99 to 9.98 µM); in [2] it was < 4 µg/mL; in data set [3], < 4 µg/mL; in data set [4], < 4 µg/mL; in data set [5], < 4 µg/mL; in [6], 4 to 8 µg/mL (≈ 4.99 to 9.98 µM). The MIC in [7], in [8], in data set [9] and in [10] was < 4 µg/mL in each case.

For `CC(C)(O/N=C(\C(=O)N[C@@H]1C(=O)N(S(=O)(=O)O)[C@@H]1CNC(=O)c1cc(C2CC[N+](C)(CCNC(=O)c3ccc(O)c(O)c3Cl)C2)no1)c1csc(N)n1)C(=O)O` (stereo partly drawn) [Compound I-32], the minimal inhibitory concentration (MIC) in data set [1] was < 4 µg/mL; in [2] it was < 4 µg/mL; in data set [3] it was < 4 µg/mL; in [4] it was < 4 µg/mL; in [5], 4 to 8 µg/mL; in data set [6] it was 8 to 16 µg/mL. Besides, the MIC in data set [7], in data set [8], in [9] and in data set [10] was < 4 µg/mL each time.

Consider `C[n+]1cc(-c2ncc(C(=O)NC[C@@H]3[C@H](NC(=O)/C(=N\OC(C)(C)C(=O)O)c4csc(N)n4)C(=O)N3S(=O)(=O)O)s2)cn1CCCNC(=O)c1ccc(O)c(O)c1Cl` [Compound I-33], for which the MIC in [1] was 4 to 8 µg/mL; in data set [2] it was < 4 µg/mL; in [3], < 4 µg/mL; in data set [4] it was < 4 µg/mL; in data set [5], < 4 µg/mL; in [6] it was 8 to 16 µg/mL. Further, the MIC in [7], in data set [8], in data set [9] and in data set [10] was < 4 µg/mL throughout.

For the molecule `Cc1c(C(=O)N2CC[C@@H](c3cc(C(=O)NC[C@@H]4[C@H](NC(=O)/C(=N\OC(C)(C)C(=O)O)c5csc(N)n5)C(=O)N4S(=O)(=O)O)on3)C2)n(O)c(C)c(O)c1=O` [Compound I-44], the AUC in data set [11] (dose 10 mg/kg) was 17300 ng·h/mL. In data set [11] (dose 10 mg/kg), the clearance came out at 9.61 mL/min/kg. The half-life in data set [11] (dose 10 mg/kg) is 37.8 min. Moreover, the Vd in [11] (dose 10 mg/kg) is 0.19 L/kg. Besides, the MIC in data set [1] was 8 to 16 µg/mL (≈ 10.1 to 20.1 µM); in [2], < 4 µg/mL; in [3], < 4 µg/mL; in data set [4], < 4 µg/mL; in data set [5], 4 to 8 µg/mL (≈ 5.03 to 10.1 µM); in data set [6], 8 to 16 µg/mL (≈ 10.1 to 20.1 µM). Also, the minimum inhibitory concentration (MIC) in [7], in data set [8] and in [10] was < 4 µg/mL throughout.

As a reminder, the MIC is the lowest concentration that inhibits growth of the organism. A word on the AUC: it is the area under the concentration-time curve, a measure of exposure. The term clearance denotes the rate of elimination divided by the concentration. Low values mean a low capacity for elimination, high ones a high capacity for elimination.
